Reference: US11414387B2, “Oxoacridinyl acetic acid derivatives and methods of use” (Stingthera, Inc., priority 2017, dated 2022)

Assays:
mSTING-R232 = mSTING-R232 (Mus musculus, UniProt Q3TBT3); assay: STING differential scanning fluorimetry (DSF) assay, mouse STING; conditions: net shift in melting temperature
Procedure: A STING DSF assay was performed to determine protein thermostability shift in response to small molecule ligand binding. A STING thermostability shift assay based on differential scanning fluorimetry was used to measure (1) the net shift in melting temperature (ΔTm)between the apo and ligand-bound states of the STING protein and (2) the concentration of the thermal denaturation transition (EC50) as a surrogate measure of binding affinity (K). […] Protein in assay buffer was transferred to a 384 well plate and incubated with the hydrophobic fluorescent dye SYBR Orange. A temperature ramp was applied to the plate and the resulting dye fluorescence was plotted as a function of temperature. The first derivative of this function (dF/dT) was then used to extrapolate the melting temperature of the protein at various concentrations of compound and determine the thermal denaturation profile of a protein/compound complex.
• 1. Protein construct (affinity tag removal vs SUMO-fusion construct) • 2. Protein concentration • 3. Dye concentration • 4. Buffer • 5. Thermal ramp velocity • 6. DMSO tolerance • 7. Compound titration parameters • 8. […] 5 μM purified Target STING Protein • 3. 8 μM Sypro Orange Dye • 4. Buffer: 100 mM NaCl, 30 mM HEPES, pH 7.5 • 5. Thermal Ramp: 0.5° C./min • 6. <1% DMSO • 7. 11 point, 2 fold dilution, duplicate, 300 μM high concentrations • 8.

mSTING = mSTING (Mus musculus, UniProt Q3TBT3); assay: Radiometric filtration binding competition assay, mSTING
STING protein = STING protein (Homo sapiens (Human), UniProt Q86WV6, H232R); assay: Cell based reporter assay of IRF activation (IRF-luciferase), THP1-dual-KI R232; conditions: read-out: THP1-dual-KI R232_IRF(Luciferase)_Activity Maximum measured (%)
Chain of STING protein (Q86WV6 whole entry H232R, the tested form may be a part): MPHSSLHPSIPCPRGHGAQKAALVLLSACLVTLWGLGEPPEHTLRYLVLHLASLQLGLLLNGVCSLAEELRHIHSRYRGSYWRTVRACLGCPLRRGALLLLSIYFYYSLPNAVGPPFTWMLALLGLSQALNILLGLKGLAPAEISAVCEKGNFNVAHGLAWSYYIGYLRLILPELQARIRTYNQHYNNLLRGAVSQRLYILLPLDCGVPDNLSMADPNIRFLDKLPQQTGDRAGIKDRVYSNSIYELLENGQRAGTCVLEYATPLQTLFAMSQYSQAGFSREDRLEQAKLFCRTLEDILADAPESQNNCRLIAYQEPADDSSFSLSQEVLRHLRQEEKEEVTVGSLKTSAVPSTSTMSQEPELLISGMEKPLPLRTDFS

hSTING-R232 = hSTING-R232 (Homo sapiens (Human), UniProt Q86WV6, H232R); assay: STING differential scanning fluorimetry (DSF) assay, WT human STING; conditions: WT (R232) human STING aa140-379, net shift in melting temperature
Chain of hSTING-R232 (Q86WV6 140-379 H232R): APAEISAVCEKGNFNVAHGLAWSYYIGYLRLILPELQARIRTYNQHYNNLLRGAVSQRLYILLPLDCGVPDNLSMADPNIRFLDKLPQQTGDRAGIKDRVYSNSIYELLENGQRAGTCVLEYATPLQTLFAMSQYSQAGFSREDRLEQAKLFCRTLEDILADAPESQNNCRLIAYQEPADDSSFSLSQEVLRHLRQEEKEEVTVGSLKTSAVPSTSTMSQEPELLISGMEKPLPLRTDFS

hSTING-WT = hSTING-WT (Homo sapiens (Human), UniProt Q86WV6, H232R); assay: Radiometric filtration binding competition assay, hSTING-WT
Chain of hSTING-WT (Q86WV6 140-379 H232R): as above

| Structure (SMILES) | MOUSE DSF_6xHIS-SUMO Tm Shift (° C.) (mSTING-R232) | IC50 (mSTING) | Emax (STING protein) | WT_DSF_hSWAT Tm Shift (° C.) (hSTING-R232) | IC50 (hSTING-WT) |
| --- | --- | --- | --- | --- | --- |
| COc1c(Cl)ccc2c(=O)c3ccc(C(C)(C)C)cc3n(CC(=O)NS(C)(=O)=O)c12 [Compound 262] | D (“D” > 15° C.) | < 20 µM | > 50% | D (“D” > 7° C.) | 20 to 100 µM |
| COc1c(Cl)ccc2c(=O)c3ccc(Nc4cnccn4)cc3n(CC(=O)O)c12 [Compound 263] | D (“D” > 15° C.) | < 20 µM | < 5% | D (“D” > 7° C.) | 20 to 100 µM |
| COc1c(Cl)ccc2c(=O)c3ccc(Nc4ccc(OC(F)(F)F)cc4)cc3n(CC(=O)O)c12 [Compound 266] | D (“D” > 15° C.) | < 20 µM | > 50% | D (“D” > 7° C.) | < 20 µM |
| COc1c(Cl)ccc2c(=O)c3ccc(Nc4ccccc4Cl)cc3n(CC(=O)O)c12 [Compound 267] | D (“D” > 15° C.) | < 20 µM | > 50% | D (“D” > 7° C.) | < 20 µM |
| COc1c(Cl)ccc2c(=O)c3ccc(-c4ccc(O)cc4)cc3n(CC(=O)O)c12 [Compound 269] | D (“D” > 15° C.) | < 20 µM | > 50% | D (“D” > 7° C.) | < 20 µM |
| COc1c(Cl)ccc2c(=O)c3ccc(-c4cccc(O)c4)cc3n(CC(=O)O)c12 [Compound 270] | D (“D” > 15° C.) | < 20 µM | > 50% | D (“D” > 7° C.) | < 20 µM |
| COc1c(Cl)ccc2c(=O)c3ccc(-c4ccc(N)cc4)cc3n(CC(=O)O)c12 [Compound 274] | D (“D” > 15° C.) | < 20 µM | > 50% | D (“D” > 7° C.) | < 20 µM |
| CCOc1c(Cl)ccc2c(=O)c3ccc(C(C)C)cc3n(CC(=O)O)c12 [Compound 288] | D (“D” > 15° C.) | < 20 µM | > 50% | D (“D” > 7° C.) | < 20 µM |
| CC(C)c1ccc2c(=O)c3ccc(Cl)c(-c4ccccc4)c3n(CC(=O)O)c2c1 [Compound 289] | C (“C” = 5-15° C.) | < 20 µM | > 50% | D (“D” > 7° C.) | < 20 µM |
| CSc1c(Cl)ccc2c(=O)c3ccc(Nc4cnccn4)cc3n(CC(=O)O)c12 [Compound 291] | D (“D” > 15° C.) | < 20 µM | < 5% | D (“D” > 7° C.) | < 20 µM |
| COc1c(Cl)ccc2c(=O)c3ccc(NC4CCC4)cc3n(CC(=O)O)c12 [Compound 292] | D (“D” > 15° C.) | < 20 µM | > 50% | D (“D” > 7° C.) | < 20 µM |
| COc1c(Cl)ccc2c(=O)c3ccc(NC4CCCC4)cc3n(CC(=O)O)c12 [Compound 293] | D (“D” > 15° C.) | < 20 µM | > 50% | D (“D” > 7° C.) | < 20 µM |
| CCc1ccc2c(=O)c3ccc(Cl)c(OC)c3n(CC(=O)O)c2c1 [Compound 294] | C (“C” = 5-15° C.) | 20 to 100 µM | > 50% | D (“D” > 7° C.) | 20 to 100 µM |
| COc1c(Cl)ccc2c(=O)c3ccc(Nc4cccc5ccccc45)cc3n(CC(=O)O)c12 [Compound 297] | D (“D” > 15° C.) | < 20 µM | > 50% | D (“D” > 7° C.) | < 20 µM |
| COc1ccccc1Nc1ccc2c(=O)c3ccc(Cl)c(OC)c3n(CC(=O)O)c2c1 [Compound 298] | D (“D” > 15° C.) | < 20 µM | > 50% | D (“D” > 7° C.) | 20 to 100 µM |
| CCOc1c(Cl)ccc2c(=O)c3ccc(CC)cc3n(CC(=O)O)c12 [Compound 306] | D (“D” > 15° C.) | < 20 µM | > 50% | D (“D” > 7° C.) | < 20 µM |
| CCN(C)c1c(Cl)ccc2c(=O)c3ccc(C)cc3n(CC(=O)O)c12 [Compound 307] | D (“D” > 15° C.) | 20 to 100 µM | > 50% | D (“D” > 7° C.) | 20 to 100 µM |
| Cc1ccc2c(=O)c3ccc(Cl)c(N(C)C)c3n(CC(=O)O)c2c1 [Compound 308] | D (“D” > 15° C.) | < 20 µM | > 50% | D (“D” > 7° C.) | < 20 µM |
| CSc1c(Cl)ccc2c(=O)c3ccc(Br)cc3n(CC(=O)O)c12 [Compound 309] | C (“C” = 5-15° C.) | 20 to 100 µM | > 50% | D (“D” > 7° C.) | 20 to 100 µM |
| CN(Cc1ccccc1)c1c(Cl)ccc2c(=O)c3ccccc3n(CC(=O)O)c12 [Compound 310] | A (“A” < 0° C.) | > 300 µM | 5 to 25% | A (“A” < 0° C.) | 100 to 300 µM |
| C=CCOc1c(Cl)ccc2c(=O)c3ccc(C)cc3n(CC(=O)O)c12 [Compound 311] | C (“C” = 5-15° C.) | < 20 µM | > 50% | D (“D” > 7° C.) | 20 to 100 µM |
| CC(=O)COc1c(Cl)ccc2c(=O)c3ccccc3n(CC(=O)O)c12 [Compound 312] | B (“B” = 0-5° C.) | > 300 µM | < 5% | B (“B” = 0-2° C.) | > 300 µM |
| COc1c(Cl)cc(O)c2c(=O)c3ccccc3n(CC(=O)O)c12 [Compound 314] | C (“C” = 5-15° C.) | 100 to 300 µM | > 50% | C (“C” = 2-7° C,) | > 300 µM |
| COc1cc2c(=O)c3ccc(Cl)c(OC)c3n(CC(=O)O)c2cc1C(C)C [Compound 318] | B (“B” = 0-5° C.) | > 300 µM | 5 to 25% | C (“C” = 2-7° C,) | 100 to 300 µM |
| C[C@@H](O)COc1c(Cl)ccc2c(=O)c3ccccc3n(CC(=O)O)c12 [Compound 323] | D (“D” > 15° C.) | < 20 µM | < 5% | D (“D” > 7° C.) | < 20 µM |
| CN(C)c1c(Cl)ccc2c(=O)c3ccc(C(C)(C)C)cc3n(CC(=O)O)c12 [Compound 324] | D (“D” > 15° C.) | < 20 µM | > 50% | D (“D” > 7° C.) | < 20 µM |
| Cc1ccc2c(=O)c3ccc(Cl)c(OCC4CC4)c3n(CC(=O)O)c2c1 [Compound 325] | C (“C” = 5-15° C.) | 100 to 300 µM | 25 to 50% | C (“C” = 2-7° C,) | 100 to 300 µM |
| Cc1ccc2c(=O)c3ccc(Cl)c(-c4ccccc4)c3n(CC(=O)O)c2c1 [Compound 326] | D (“D” > 15° C.) | < 20 µM | > 50% | D (“D” > 7° C.) | < 20 µM |
